# Tested on: 695427-040-R-J1-PDC complex spheroids, viability percent T/C
# Assay: Anticancer human tumor 695427-040-R-J1-PDC patient-derived colon adenocarcinoma cell line growth inhibition [GQUAD]
# Details: for IC50: curve of first compound; for viability, T/C: stronger effect = lower value
# Summary of the method: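 Viability of tumor cells grown as complex spheroids with endothelial and stromal cells, exposed to drug combinations. Top concentration at or near clinical Cmax (else 10 microM), diluted in half-log increments.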
# [1] = second compound 0.0316 µM, first compound 0.0316 µM
# [2] = second compound 0.0316 µM, first compound 0.316 µM
# [3] = second compound 0.1 µM, first compound 0.0316 µM
# [4] = second compound 0.1 µM, first compound 0.316 µM
# [5] = second compound 0.316 µM, first compound 0.0316 µM
# [6] = second compound 0.316 µM, first compound 0.316 µM
# [7] = second compound 1 µM, first compound 0.0316 µM
# [8] = second compound 1 µM, first compound 0.316 µM
# [9] = second compound 3.16 µM, first compound 0.0316 µM
# [10] = second compound 3.16 µM, first compound 0.316 µM
# [11] = second compound 10 µM, first compound 0.0316 µM
# [12] = second compound 10 µM, first compound 0.316 µM
# [13] = second compound 0.0316 µM, first compound 0.1 µM
# [14] = second compound 0.0316 µM, first compound 1 µM
# [15] = second compound 0.0316 µM, first compound 3.16 µM
# [16] = second compound 0.0316 µM, first compound 10 µM
# [17] = second compound 0.1 µM, first compound 0.1 µM
# [18] = second compound 0.1 µM, first compound 1 µM
# [19] = second compound 0.1 µM, first compound 3.16 µM
# [20] = second compound 0.1 µM, first compound 10 µM
# [21] = second compound 0.316 µM, first compound 0.1 µM
# [22] = second compound 0.316 µM, first compound 1 µM
# [23] = second compound 0.316 µM, first compound 3.16 µM
# [24] = second compound 0.316 µM, first compound 10 µM
# [25] = second compound 1 µM, first compound 0.1 µM
# [26] = second compound 1 µM, first compound 1 µM
# [27] = second compound 1 µM, first compound 3.16 µM
# [28] = second compound 1 µM, first compound 10 µM
# [29] = second compound 3.16 µM, first compound 0.1 µM
# [30] = second compound 3.16 µM, first compound 1 µM
# [31] = second compound 3.16 µM, first compound 3.16 µM
# [32] = second compound 3.16 µM, first compound 10 µM
# [33] = second compound 10 µM, first compound 0.1 µM
# [34] = second compound 10 µM, first compound 1 µM
# [35] = second compound 10 µM, first compound 3.16 µM
# [36] = second compound 10 µM, first compound 10 µM
# 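Also: spheroids exposed to compounds for seven days before readout.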
compound,measurement,setting,value
Cc1[nH]c2ccccc2c1CCNCc1ccc(/C=C/C(=O)NO)cc1 + Cc1cnc(CNC(=O)c2c(=O)c3ccc(N4CCCN(C)CC4)nc3n3c2sc2ccccc23)cn1,IC50,second compound 0.0316 µM,> 316 nM
same,IC50,second compound 0.1 µM,> 316 nM
same,IC50,second compound 0.316 µM,> 316 nM
same,IC50,second compound 1 µM,> 316 nM
same,IC50,second compound 3.16 µM,< 0.999 nM
same,IC50,second compound 10 µM,< 0.999 nM
same,"viability, T/C","second compound 0.0316 µM, first compound 0.000999 µM",108%
same,"viability, T/C","second compound 0.0316 µM, first compound 0.00316 µM",89.4%
same,"viability, T/C","second compound 0.0316 µM, first compound 0.00999 µM",105%
same,"viability, T/C",[1],87.8%
same,"viability, T/C","second compound 0.0316 µM, first compound 0.0999 µM",86.9%
same,"viability, T/C",[2],80.5%
same,"viability, T/C","second compound 0.1 µM, first compound 0.000999 µM",90.7%
same,"viability, T/C","second compound 0.1 µM, first compound 0.00316 µM",84%
same,"viability, T/C","second compound 0.1 µM, first compound 0.00999 µM",84.3%
same,"viability, T/C",[3],80.5%
same,"viability, T/C","second compound 0.1 µM, first compound 0.0999 µM",94.8%
same,"viability, T/C",[4],65.5%
same,"viability, T/C","second compound 0.316 µM, first compound 0.000999 µM",74.9%
same,"viability, T/C","second compound 0.316 µM, first compound 0.00316 µM",80.8%
same,"viability, T/C","second compound 0.316 µM, first compound 0.00999 µM",85.5%
same,"viability, T/C",[5],85%
same,"viability, T/C","second compound 0.316 µM, first compound 0.0999 µM",90.4%
same,"viability, T/C",[6],58.1%
same,"viability, T/C","second compound 1 µM, first compound 0.000999 µM",50.9%
same,"viability, T/C","second compound 1 µM, first compound 0.00316 µM",73.3%
same,"viability, T/C","second compound 1 µM, first compound 0.00999 µM",69.2%
same,"viability, T/C",[7],66.6%
same,"viability, T/C","second compound 1 µM, first compound 0.0999 µM",67.5%
same,"viability, T/C",[8],39%
same,"viability, T/C","second compound 3.16 µM, first compound 0.000999 µM",41.6%
same,"viability, T/C","second compound 3.16 µM, first compound 0.00316 µM",51.4%
same,"viability, T/C","second compound 3.16 µM, first compound 0.00999 µM",52.9%
same,"viability, T/C",[9],46.1%
same,"viability, T/C","second compound 3.16 µM, first compound 0.0999 µM",43.1%
same,"viability, T/C",[10],9.89%
same,"viability, T/C","second compound 10 µM, first compound 0.000999 µM",21.6%
same,"viability, T/C","second compound 10 µM, first compound 0.00316 µM",31.5%
same,"viability, T/C","second compound 10 µM, first compound 0.00999 µM",32%
same,"viability, T/C",[11],31.1%
same,"viability, T/C","second compound 10 µM, first compound 0.0999 µM",14.5%
same,"viability, T/C",[12],0.3%
Nc1ccn(C2OC(CO)C(O)C2(F)F)c(=O)n1 (stereo unspecified) + Cc1cnc(CNC(=O)c2c(=O)c3ccc(N4CCCN(C)CC4)nc3n3c2sc2ccccc23)cn1,IC50,second compound 0.0316 µM,> 10000 nM
same,IC50,second compound 0.1 µM,> 10000 nM
same,IC50,second compound 0.316 µM,> 10000 nM
same,IC50,second compound 1 µM,> 10000 nM
same,IC50,second compound 3.16 µM,< 31.6 nM
same,IC50,second compound 10 µM,< 31.6 nM
same,"viability, T/C",[1],91.9%
same,"viability, T/C",[13],81.2%
same,"viability, T/C",[2],73.6%
same,"viability, T/C",[14],49.4%
same,"viability, T/C",[15],55.1%
same,"viability, T/C",[16],53.9%
same,"viability, T/C",[3],93.8%
same,"viability, T/C",[17],72.5%
same,"viability, T/C",[4],65.9%
same,"viability, T/C",[18],52%
same,"viability, T/C",[19],56.4%
same,"viability, T/C",[20],61.3%
same,"viability, T/C",[5],70%
same,"viability, T/C",[21],66%
same,"viability, T/C",[6],61.7%
same,"viability, T/C",[22],64.8%
same,"viability, T/C",[23],64.2%
same,"viability, T/C",[24],53.5%
same,"viability, T/C",[7],60.6%
same,"viability, T/C",[25],55.2%
same,"viability, T/C",[8],54.9%
same,"viability, T/C",[26],52.8%
same,"viability, T/C",[27],56.4%
same,"viability, T/C",[28],54.6%
same,"viability, T/C",[9],42.7%
same,"viability, T/C",[29],50.9%
same,"viability, T/C",[10],54.3%
same,"viability, T/C",[30],47.3%
same,"viability, T/C",[31],46.4%
same,"viability, T/C",[32],36%
same,"viability, T/C",[11],35.1%
same,"viability, T/C",[33],41.7%
same,"viability, T/C",[12],40.1%
same,"viability, T/C",[34],29%
same,"viability, T/C",[35],36.7%
same,"viability, T/C",[36],29.8%
O=c1[nH]cc(F)c(=O)[nH]1 + Cc1cnc(CNC(=O)c2c(=O)c3ccc(N4CCCN(C)CC4)nc3n3c2sc2ccccc23)cn1,IC50,second compound 0.0316 µM,> 10000 nM
same,IC50,second compound 0.1 µM,> 10000 nM
same,IC50,second compound 0.316 µM,> 10000 nM
same,IC50,second compound 1 µM,> 10000 nM
same,IC50,second compound 3.16 µM,< 31.6 nM
same,IC50,second compound 10 µM,< 31.6 nM
same,"viability, T/C",[1],108%
same,"viability, T/C",[13],70.6%
same,"viability, T/C",[2],70.8%
same,"viability, T/C",[14],69.7%
same,"viability, T/C",[15],76%
same,"viability, T/C",[16],105%
same,"viability, T/C",[3],94.2%
same,"viability, T/C",[17],79.4%
same,"viability, T/C",[4],72.4%
same,"viability, T/C",[18],74.9%
same,"viability, T/C",[19],94.2%
same,"viability, T/C",[20],97.5%
same,"viability, T/C",[5],83.6%
same,"viability, T/C",[21],67.5%
same,"viability, T/C",[6],80.9%
same,"viability, T/C",[22],67.9%
same,"viability, T/C",[23],86.4%
same,"viability, T/C",[24],85.8%
same,"viability, T/C",[7],77.8%
same,"viability, T/C",[25],58%
same,"viability, T/C",[8],63.8%
same,"viability, T/C",[26],71.4%
same,"viability, T/C",[27],80.1%
same,"viability, T/C",[28],77.6%
same,"viability, T/C",[9],44.9%
same,"viability, T/C",[29],53.1%
same,"viability, T/C",[10],59.9%
same,"viability, T/C",[30],45.3%
same,"viability, T/C",[31],72.2%
same,"viability, T/C",[32],54.3%
same,"viability, T/C",[11],28.3%
same,"viability, T/C",[33],54.2%
same,"viability, T/C",[12],48.8%
same,"viability, T/C",[34],43.8%
same,"viability, T/C",[35],54.6%
same,"viability, T/C",[36],49.9%
